Data as given in PubChem BioAssay (NCI).
Values joined by “and” are separate entries in the source; they are usually repeats but may differ in a detail not shown here. Equal values may be shown once.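 1) Cells in 96-well plates. 2) Compound, 48 h, 5 concentrations. 3) Linear interpolation between surrounding doses. 4) Unreached endpoint = highest concentration. At the GI50, growth is halved. TGI: total growth inhibition.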

Key:
Test in all cases: inhibition of tumour cell growth, NCI panel, 48 h
SN12C renal = tested on: SN12C renal
NCI-H23 lung = tested on: NCI-H23 lung
MDA-MB-231 breast = tested on: MDA-MB-231 breast
U251 CNS = tested on: U251 CNS
HCC-2998 colon = tested on: HCC-2998 colon
SK-MEL-5 melanoma = tested on: SK-MEL-5 melanoma
LOX IMVI melanoma = tested on: LOX IMVI melanoma
RPMI-8226 leukemia = tested on: RPMI-8226 leukemia
A498 renal = tested on: A498 renal
SF-539 CNS = tested on: SF-539 CNS

SMILES	GI50 (SN12C renal) [µM]	TGI (SN12C renal) [µM]	GI50 (NCI-H23 lung) [µM]	TGI (NCI-H23 lung) [µM]	GI50 (MDA-MB-231 breast) [µM]	TGI (MDA-MB-231 breast) [µM]	GI50 (U251 CNS) [µM]	TGI (U251 CNS)	GI50 (HCC-2998 colon) [µM]	GI50 (SK-MEL-5 melanoma) [µM]	TGI (SK-MEL-5 melanoma) [µM]	GI50 (LOX IMVI melanoma) [µM]	TGI (LOX IMVI melanoma) [µM]	GI50 (RPMI-8226 leukemia) [µM]	TGI (RPMI-8226 leukemia) [µM]	GI50 (A498 renal) [µM]	TGI (A498 renal) [µM]	GI50 (SF-539 CNS) [µM]	TGI (SF-539 CNS) [µM]	TGI (HCC-2998 colon) [µM]
O=C(Nc1cccc(-n2ccc3c(NC(=O)c4ccccc4)nccc32)c1)c1ccc(N2CCOCC2)c(C(F)(F)F)c1	0.134	> 100	0.0679	> 90.1	0.127	3.42	0.0474	> 100 µM	0.0614	0.0349	0.169	0.0427	> 100	0.0545	13.1	0.0357	4.72	0.0358	3.42	–
CCOc1ccc2nc(-c3ccc(O)cc3)sc2c1	–	> 100	–	> 100	–	> 100	–	> 100 µM	–	–	> 100	–	> 100	–	2.63	–	> 100	–	> 100	–
CC[C@]1(O)C[C@H]2CN(CCc3c([nH]c4ccccc34)[C@@](C(=O)OC)(c3cc4c(cc3OC)N(C=O)[C@H]3[C@@](O)(C(=O)OC)[C@H](OC(C)=O)[C@]5(CC)C=CCN6CC[C@]43[C@@H]65)C2)C1	–	–	< 0.001	–	0.00138	–	–	1.66 µM and 2.53 µM and 16.6 µM	–	–	–	–	–	–	–	0.00192	–	–	–	–
O=C1OC(c2ccccc2)=N/C1=C\c1cccnc1	–	–	–	> 100	–	–	–	> 100 µM	–	–	> 100	–	–	–	> 100	–	–	–	> 100	> 100
COC1=C2CC(C)CC(OC)C(O)C(C)/C=C(\C)C(OC(N)=O)C(OC)/C=C\C=C(/C)C(=O)NC(=C(C=NC(C)(C)C)C1=O)C2=O (centres undefined)	–	21	–	5.17	–	–	–	21.9 µM	–	–	15.4	–	22.3	–	13.5	–	23.6	–	24.2	16.6
CC(=O)OC1C(C)OC(Oc2c(C)c3c4c(c2O)[C@@H](C)CC[C@@H]4[C@@H](C)C[C@H]3C=C(C)C)C(O)C1O (some centres undefined)	–	–	–	–	–	–	–	–	–	2.49	5.39	–	–	–	–	4.43	14.7	–	–	–
CS(=O)(=O)c1ccc(/C=N/NC(N)=S)cc1	–	> 100	–	> 100	–	> 100	–	> 100 µM	–	–	> 100	–	> 100	–	> 100	–	> 100	–	–	> 100
Nc1ncnc2c1ncn2C1OC(COP(=O)(O)O)C(O)C1O (centres undefined)	–	> 50	–	> 50	–	–	–	> 50 µM	–	–	> 50	–	> 50	–	> 50	–	> 50	–	> 50	> 50
Fc1ccc2[nH]cc(-c3nc(-c4c[nH]c5ncccc45)cs3)c2c1	–	–	–	–	–	–	–	–	> 100	–	–	–	–	–	–	2.07	> 100	–	–	> 100
C/C(CC/C(C)=N/O)=N\O	–	> 100	–	> 100	–	> 100	–	> 100 µM	–	–	> 100	–	> 100	–	> 100	–	> 100	–	> 100	> 100
N/C(=N\N=C/c1ccccc1O)NO	–	> 100	–	53.9	–	–	–	> 100 µM	–	–	> 100	–	> 100	–	27	–	44.4	–	28.3	25.6
O=C(O)c1cc2ccccc2c(N=Nc2ccccc2)c1O	–	74.1	–	56.1	–	> 100	–	45.1 µM	–	–	28.2	–	–	–	> 100	–	> 100	–	–	–
